Patent US20160194299A1 (priority 2013, published 2016)
≈ marks a conversion by molar mass, not a printed value. Like-named read-outs stand apart in the source and are kept apart here.

What was measured:
[1] = tested on: Mtb; test: microbe, parasite or virus in culture; type: cell-based, Mycobacterium tuberculosis; details: Mycobacterium tuberculosis, read-out: MIC (I)
[2] = tested on: Mtb; test: microbe, parasite or virus in culture; type: cell-based, Mycobacterium tuberculosis; details: Mycobacterium tuberculosis, read-out: MIC (III)
[3] = in vitro; details: African green monkey

Row | SMILES | MIC [1] [µg/mL] | MIC [2] [µg/mL] | CC50 [3] [µg/mL]
1 | CCOC(=O)NC(=O)c1ccsc1NC(=O)c1cc(OC)c2ccccc2n1 [Compound 114] | > 3 | > 25 | > 50
2 | CCOC(=O)NC(=O)c1ccsc1NC(=O)c1cc(O)nc2ccccc12 [Compound 115] | > 3 | > 25 | > 50
3 | CCOC(=O)NC(=O)c1ccsc1NC(=O)c1cc2ccccc2cn1 [Compound 116] | > 3 | > 25 | > 50
4 | CCOC(=O)NC(=O)c1ccsc1NC(=O)c1cc(C(F)(F)F)nc2ccccc12 [Compound 117] | > 3 | > 25 | < 25
5 | CCOC(=O)NC(=O)c1ccsc1NC(=O)c1ccnc(NC(=O)C(C)(C)C)n1 [Compound 118] | > 3 | 5 to 25 (≈ 11.9 to 59.6 µM) | > 50
6 | CCOC(=O)NC(=O)c1ccsc1NC(=O)c1ccc2c(c1)CCCC2 [Compound 119] | > 3 | > 25 | > 50
7 | CCOC(=O)NC(=O)c1ccsc1NC(=O)c1cc2nc(C)cc(C)n2n1 [Compound 121] | > 3 | > 25 | > 50
8 | CCOC(=O)NC(=O)c1ccsc1NC(=O)c1cc(C)nc2ccccc12 [Compound 122] | > 3 | > 25 | > 50
9 | CCOC(=O)NC(=O)c1ccsc1NC(=O)c1ccnc2ccc(OC)cc12 [Compound 123] | > 3 | 5 to 25 (≈ 12.5 to 62.6 µM) | > 50
10 | CCOC(=O)NC(=O)c1ccsc1NC(=O)c1cn2cccc(C#N)c2n1 [Compound 124] | > 3 | < 5 | > 50
11 | CCOC(=O)NC(=O)c1ccsc1NC(=O)c1nc2ncccn2n1 [Compound 125] | > 3 | 5 to 25 (≈ 13.9 to 69.4 µM) | > 50
12 | CCOC(=O)NC(=O)c1ccsc1NC(=O)c1nc(S(C)(=O)=O)ncc1Cl [Compound 126] | > 3 | > 25 | < 25
13 | CCOC(=O)NC(=O)c1ccsc1NC(=O)c1cnc(OC)cn1 [Compound 127] | > 3 | > 25 | > 50
14 | CCOC(=O)NC(=O)c1ccsc1NC(=O)c1cnc(O)cn1 [Compound 129] | > 3 | > 25 | > 50
15 | CCOC(=O)NC(=O)c1ccsc1NC(=O)c1nc(-c2ccccc2)oc1C [Compound 130] | > 3 | > 25 | > 50
16 | CCOC(=O)NC(=O)c1ccsc1NC(=O)c1csc(C(F)(F)F)n1 [Compound 131] | > 3 | 5 to 25 (≈ 12.7 to 63.6 µM) | < 25
17 | CCOC(=O)NC(=O)c1ccsc1NC(=O)c1ccc2c(c1)CCO2 [Compound 132] | > 3 | 5 to 25 (≈ 13.9 to 69.4 µM) | > 50
18 | CCOC(=O)NC(=O)c1ccsc1NC(=O)c1csc(-c2ccccn2)n1 [Compound 133] | > 3 | > 25 | > 50
19 | CCOC(=O)NC(=O)c1ccsc1NC(=O)c1sc(-c2ccncc2)nc1C [Compound 135] | > 3 | > 25 | > 50
20 | CCOC(=O)NC(=O)c1ccsc1NC(=O)c1sc(-c2cccnc2)nc1C [Compound 136] | > 3 | > 25 | > 50
21 | CCOC(=O)NC(=O)c1ccsc1NC(=O)c1sc(C)nc1C(F)(F)F [Compound 137] | > 3 | > 25 | > 50
22 | CCOC(=O)NC(=O)c1ccsc1NC(=O)c1nn(-c2ccccc2)nc1C [Compound 138] | > 3 | > 25 | > 50
23 | CCOC(=O)NC(=O)c1ccsc1NC(=O)c1cccc2ncccc12 [Compound 139] | > 3 | > 25 | > 50
24 | CCOC(=O)NC(=O)c1ccsc1NC(=O)c1ccc(=O)n(C)c1 [Compound 140] | > 3 | 5 to 25 (≈ 14.3 to 71.6 µM) | > 50
25 | CCOC(=O)NC(=O)c1ccsc1NC(=O)c1cnc2ccccn12 [Compound 142] | > 3 | > 25 | 25 to 50 (≈ 69.8 to 140 µM)

Row | SMILES | MIC [1] [µg/mL] | MIC [2] [µg/mL] | CC50 [3] [µg/mL]
26 | CCOC(=O)NC(=O)c1ccsc1NC(=O)C1CCc2ccccc2N1 (stereo not drawn) [Compound 143] | > 3 | 5 to 25 (≈ 13.4 to 66.9 µM) | > 50
27 | CCOC(=O)NC(=O)c1ccsc1NC(=O)c1nc(C(F)(F)F)cs1 [Compound 144] | > 3 | > 25 | > 50
28 | CCOC(=O)NC(=O)c1ccsc1NC(=O)c1ccc2cnccc2c1 [Compound 145] | > 3 | > 25 | > 50
29 | CCOC(=O)NC(=O)c1c(C)csc1NC(=O)c1ccc2scnc2c1 [Compound 146] | > 3 | > 25 | > 50
30 | CCOC(=O)NC(=O)c1ccsc1NC(=O)c1cc(O)ncn1 [Compound 147] | > 3 | > 25 | > 50
31 | CCOC(=O)NC(=O)c1ccsc1NC(=O)c1cn2cc(C)ccc2n1 [Compound 208] | > 3 | > 25 | > 50
32 | CCOC(=O)NC(=O)c1ccsc1NC(=O)c1nc2c(s1)CCCC2 [Compound 217] | < 1 | > 25 | > 50
33 | CCOC(=O)NC(=O)c1ccsc1NC(=O)c1nc2c(N3CCOCC3)ccnc2s1 [Compound 247] | < 1 | 5 to 25 (≈ 10.8 to 54.2 µM) | 25 to 50 (≈ 54.2 to 108 µM)
34 | CCOC(=O)NC(=O)c1ccsc1NC(=O)c1nc2c(N3CCOCC3)nccc2s1 [Compound 248] | < 1 | > 25 | > 50
35 | CN1CCCN(C(=O)c2ccsc2NC(=O)c2nc3ccccc3s2)CC1 [Compound 254] | > 3 | > 25 | > 50
36 | CCN1CCN(C(=O)c2ccsc2NC(=O)c2nc3ccccc3s2)CC1 [Compound 257] | > 3 | 5 to 25 (≈ 12.5 to 62.4 µM) | 25 to 50 (≈ 62.4 to 125 µM)
37 | O=C(Nc1sccc1C(=O)N1CCN(c2ccccc2)CC1)c1nc2ccccc2s1 [Compound 258] | > 3 | > 25 | > 50
38 | O=C(Nc1sccc1C(=O)NC1CCNCC1)c1nc2ccccc2s1 [Compound 259] | > 3 | > 25 | > 50
39 | CC1CCN(C(=O)c2ccsc2NC(=O)c2nc3ccccc3s2)CC1 [Compound 260] | > 3 | > 25 | 25 to 50 (≈ 64.8 to 130 µM)
40 | CCOC(=O)NC(=O)c1ccsc1NC(=O)c1nc2c(N3CCN(C)CC3)nccc2s1 [Compound 262] | 1 to 3 (≈ 2.11 to 6.32 µM) | 5 to 25 (≈ 10.5 to 52.7 µM) | 25 to 50 (≈ 52.7 to 105 µM)
41 | CCOC(=O)NC(=O)c1ccsc1NC(=O)c1cncn1C [Compound 263] | > 3 | > 25 | > 50
42 | CCOC(=O)NC(=O)c1ccsc1NC(=O)c1cnc2ccccc2c1 [Compound 264] | < 1 | 5 to 25 (≈ 13.5 to 67.7 µM) | < 25
43 | CCOC(=O)NC(=O)c1ccsc1NC(=O)c1cnn2ccccc12 [Compound 265] | > 3 | > 25 | 25 to 50 (≈ 69.8 to 140 µM)
44 | CCOC(=O)NC(=O)c1ccsc1NC(=O)c1cnc2c(Br)cnn2c1 [Compound 266] | < 1 | > 25 | 25 to 50 (≈ 57 to 114 µM)
45 | CCOC(=O)NC(=O)c1ccsc1NC(=O)c1nc2cnc(Cl)cc2s1 [Compound 267] | < 1 | > 25 | > 50
46 | CCOC(=O)NC(=O)c1ccsc1NC(=O)c1nc2c(N(C)C)ccnc2s1 [Compound 268] | < 1 | > 25 | > 50
47 | CCOC(=O)NC(=O)c1ccsc1NC(=O)c1nc2c(N3CCN(C)CC3)ccnc2s1 [Compound 269] | < 1 | 5 to 25 (≈ 10.5 to 52.7 µM) | > 50
48 | CCOC(=O)NC(=O)c1ccsc1NC(=O)c1nc2c(N(C)C)nccc2s1 [Compound 270] | < 1 | > 25 | > 50
49 | O=C(NC(=O)c1ccsc1NC(=O)c1nc2ccccc2s1)OCc1ccc(F)cc1 [Compound 274] | 1 to 3 (≈ 2.2 to 6.59 µM) | > 25 | < 25
50 | O=C(NC(=O)c1ccsc1NC(=O)c1nc2cnccc2s1)OCc1ccc(F)cc1 [Compound 275] | > 3 | > 25 | 25 to 50 (≈ 54.8 to 110 µM)
